According to ChEMBL document CHEMBL3877320, “Synthesis of new analogs of AKBA and evaluation of their anti-inflammatory activities” (Bioorg Med Chem, 2017):
≈ marks a conversion by molar mass, not a printed value.

Assay: Inhibition of potato 5-lipoxygenase using linoleic acid as substrate preincubated for 2 mins followed by substrate addition measured for 120 secs
Set-up: species or system Solanum tuberosum

Compound	IC50 [mg/L]
C[C@H]1[C@H](C)CC[C@]2(C)CC[C@]3(C)C(=CC(=O)[C@@H]4[C@@]5(C)Cc6cn[nH]c6[C@](C)(C(=O)N6CCN(C)CC6)[C@@H]5CC[C@]43C)[C@H]12	> 100
C[C@H]1[C@H](C)CC[C@]2(C)CC[C@]3(C)C(=CC(=O)[C@@H]4[C@@]5(C)Cc6cn[nH]c6[C@](C)(C(=O)N6CCCCC6)[C@@H]5CC[C@]43C)[C@H]12	> 100
C[C@H]1[C@H](C)CC[C@]2(C)CC[C@]3(C)C(=CC(=O)[C@@H]4[C@@]5(C)Cc6cn[nH]c6[C@](C)(C(=O)O)[C@@H]5CC[C@]43C)[C@H]12	> 100
C[C@H]1[C@H](C)CC[C@]2(C)CC[C@]3(C)C(=CC(=O)[C@@H]4[C@@]5(C)Cc6cnoc6[C@](C)(C(=O)N6CCN(C)CC6)[C@@H]5CC[C@]43C)[C@H]12	> 100
C[C@H]1[C@H](C)CC[C@]2(C)CC[C@]3(C)C(=CC(=O)[C@@H]4[C@@]5(C)CC(C=O)C(=O)[C@](C)(C(=O)Nc6ccccc6)[C@@H]5CC[C@]43C)[C@H]12 (some centres undefined)	19.53 (≈ 34.2 µM)
COC(=O)[C@@]1(C)c2oncc2C[C@@]2(C)[C@H]1CC[C@]1(C)[C@@H]2C(=O)C=C2[C@@H]3[C@@H](C)[C@H](C)CC[C@]3(C)CC[C@]21C	> 100
C[C@H]1[C@H](C)CC[C@]2(C)CC[C@]3(C)C(=CC(=O)[C@@H]4[C@@]5(C)Cc6cnoc6[C@](C)(C(=O)N6CCCCC6)[C@@H]5CC[C@]43C)[C@H]12	20.31 (≈ 36.2 µM)
C[C@H]1[C@H](C)CC[C@]2(C)CC[C@]3(C)C(=CC(=O)[C@@H]4[C@@]5(C)CC(C=O)C(=O)[C@@H](C)[C@@H]5CC[C@]43C)[C@H]12 (some centres undefined)	44.14 (≈ 97.5 µM)
CC(=O)O[C@@H]1CC[C@@]2(C)[C@@H](CC[C@]3(C)[C@@H]2C(=O)C=C2[C@@H]4[C@@H](C)[C@H](C)CC[C@]4(C)CC[C@]23C)[C@@]1(C)C(=O)O [AKBA]	94.6 (≈ 185 µM)
COC(=O)[C@@]1(C)C(=O)C(C#N)=C[C@]2(C)[C@H]3C(=O)C=C4[C@@H]5[C@@H](C)[C@H](C)CC[C@]5(C)CC[C@@]4(C)[C@]3(C)CC[C@@H]12	> 100
C[C@H]1[C@H](C)CC[C@]2(C)CC[C@]3(C)C(=CC(=O)[C@@H]4[C@@]5(C)CC(C=O)C(=O)[C@](C)(C(N)=O)[C@@H]5CC[C@]43C)[C@H]12 (some centres undefined)	> 100
C[C@H]1[C@H](C)CC[C@]2(C)CC[C@]3(C)C(=CC(=O)[C@@H]4[C@@]5(C)CC(C=O)C(=O)[C@](C)(C(=O)N6CCOCC6)[C@@H]5CC[C@]43C)[C@H]12 (some centres undefined)	> 100
C[C@H]1[C@H](C)CC[C@]2(C)CC[C@]3(C)C(=CC(=O)[C@@H]4[C@@]5(C)CC(C=O)C(=O)[C@](C)(C(=O)N6CCCCC6)[C@@H]5CC[C@]43C)[C@H]12 (some centres undefined)	> 100
C[C@H]1[C@H](C)CC[C@]2(C)CC[C@]3(C)C(=CC(=O)[C@@H]4[C@@]5(C)Cc6cn[nH]c6[C@](C)(C(=O)N6CCNCC6)[C@@H]5CC[C@]43C)[C@H]12	> 100
